Results taken from patent publication US10330673B2, “Fluorescent chemical sensor for biological amines” (The Curators of the University of Missouri, priority 2013, dated 2019).

How the values were obtained:
[1] = Fluorescence quantum yield of sensor bound to norepinephrine; type: physicochemical
[2] = Fluorescence titration of sensor with epinephrine; type: binding
Method: (§1) Fluorescence spectra were recorded on a Shimadzu RF-5301 PC spectrofluorometer at 37° C. A 1 mg/mL stock solution of I-2 in DMSO was prepared. A stock solution of I-2 in buffer (1×10^−5 M, 25 mM HEPES, 50 mM Na2S2O3, pH=5.0) was prepared. Norepinephrine, dopamine, epinephrine, and glutamate stock solutions were prepared by separately dissolving the analytes at the concentration to be used in the titration with the buffered stock solution of I-2 (thus avoiding dilution of I-2 during the experiment). I-2 was titrated with aliquots of analyte solution. The sensor was excited at 488 nm with slit widths of 5 nm.
(§2) Fluorescence spectra were recorded on a Shimadzu RF-5301 PC spectrofluorometer at 37° C. A separate 1 mg/mL stock solution of each coumarin-3-aldehyde derivative in DMSO was prepared. An aqueous stock solution of each derivative (10 μM) in buffer (25 mM HEPES, 50 mM Na2S2O3, pH=5.0) was prepared. Norepinephrine, dopamine, glutamate, and epinephrine stock solutions were prepared by separately dissolving the solid analytes at the concentration to be used in the titration with the buffered stock solutions described above and thus, avoiding dilution of the sensor during the experiment. The benzene-based NS521 derivatives were excited at 488 nm. The thiophene-based derivatives were excited at 515 nm.

[3] = Fluorescence titration of sensor with glycine; type: binding; details: amine guest glycine
[4] = Binding affinity toward free primary amines
[5] = Fluorescence titration of sensor with glutamate; type: binding; details: for Ka: pH 5.0, 37° C.
Method: as §1, §2

[6] = tested on: epinephrine-enriched chromaffin cells; experiment: Live-cell confocal imaging with Compound I-2, epinephrine-enriched cells; type: cell-based, bovine; details: 0.1 μM
Method: Chromaffin cells were separated into norepinephrine-enriched and epinephrine-enriched fractions by centrifugation on a Percoll gradient. Both populations were independently incubated with a 0.1 μM solution of Compound I-2 at 37° C. for 30 minutes and then washed to remove excess sensor and plated.
Chromaffin cells were isolated from bovine adrenal glands as previously described. Following centrifugation at 18° C. at 13,000 rpm for 45 minutes in the Percoll gradient, chromaffin cells separate into fractions enriched with either epinephrine-enriched cells (denser band) and norepinephrine-enriched cells (lighter band). Moro, M. A.; Lépez, M. G.; Gandía, L.; Michelena, P.; Garcia, G. Separation and culture of living adrenaline- and noradrenaline-containing cells from bovine adrenal medullae. Anal. Biochem. 1990, 185, 243-248. Over 90% of the catecholamine content found in the cells in the denser fraction are epinephrine, whereas approximately 67% of the catecholamine content in the lighter fraction are norepinephrine. Liu, X.; Barizuddin, S.; Shin, W.; Mathai, C. J.; Gangopadhyay, S.; Gillis, K. D. Microwell device for targeting single cells to electrochemical microelectrodes for high-throughput amperometric detection of quantal exocytosis. Anal. Chem. 2011, 83, 2445-2451. The two cell fractions were collected from the Percoll gradient with careful pipetting and separately cultured. […]

[7] = Table 2, analyte glutamate, benzene-based compounds I, excited at 488 nm

In the case of `CCN(CC)c1ccc2c(-c3ccc(OC)cc3)c(C=O)c(=O)oc2c1` [Compound I-2, 7-diethylamino-3-formyl-4-(4′-methoxyphenyl)coumarin], the “Quantum Yield (Φ)” value [1] is reported as 0.0033, the Ka ([2]; amine guest epinephrine, fluorescence spectroscopy, λex = 488 nm, λem = 521 nm, pH 5.0, 37° C.) is reported as 0 M⁻¹ and the “interaction with secondary amines such as epinephrine” value ([2]; in words) is reported as “does not interact”. The Ka ([3]; fluorescence spectroscopy, λex = 488 nm, λem = 521 nm) was 8 M⁻¹, the “Isat/Io (λex = 488 nm)” value ([3]; intensity at saturation from fit to binding isotherm) was 11.1 and the “binding affinities toward free primary amines” value [4] was ~10 M⁻¹. The F.E. [5, 7] was 7.82, the Ka [5, 7] was 9.63 M⁻¹ and the Ka ([5]; amine guest glutamate, fluorescence spectroscopy, λex = 488 nm, λem = 521 nm) was 10 M⁻¹. The “Isat/Io (λex = 488 nm)” value ([5]; amine guest glutamate, intensity at saturation from fit to binding isotherm) was 7.8, the “cell fluorescence, confocal microscopy” value ([6]; 37° C., 30 minutes, 488 nm excitation (bound sensor)) was “marginal fluorescence” and the “cell fluorescence, confocal microscopy” value ([6]; excited at 440 nm (unbound sensor)) was “No significant fluorescence”.
